{"source": "patent US20040077531A1", "about": "“Use of galanin-like peptide” (priority 2001, published 2004)", "type_in_all_cases": "in vivo, rat", "key": {"[1]": {"system": "pituitary hormone levels in plasma", "test": "Pituitary hormone levels in plasma after GALP administration into the third ventricle", "details": "Wistar rats", "procedure": "Effects of GALP administration into the third ventricle on pituitary hormone levels in plasma were examined. Briefly, adult male Wistar rats (body weight: 350-380 g at the time of surgery) were anesthetized by intraperitoneal administration of 50 mg/kg pentobarbital and fixed in a stereotaxic apparatus for rat brain. The incisor bar was set 3.3 mm below the interaural line. The skull surface was exposed, and a hole was drilled in the skull with a dental drill in order to implant a guide cannula AG-8 (inside dia. 0.4 mm, outside dia. 0.5 mm; Eicom) in the third ventricle. Further, four anchor screws were embedded around the hole. A stainless guide cannula (AG-12) was inserted so that its tip was located above the third ventricle. The stereotaxic coordinates were set as follows according to the atlas of Paxinos and Watson (1998): AP: −0.8 mm, L: 0.0 mm, […] from bregma. The guide cannula was fixed onto the skull with instant glue, dental cement and the anchor screws. […]\nThe rats were allowed about one week for recovery after the implantation of the guide cannula. […] Growth hormone (GH), thyroid-stimulating hormone (TSH), follicle-stimulating hormone (FSH), LH, prolactin and adorenocorticotropic hormone (ACTH) contained in the plasma were quantified by radioimmunoassay (GH, TSH, FSH, LH and prolactin; Amersham) (ACTH; Mitsubishi Kagaku)."}, "blood LH levels [2]": {"system": "blood LH levels", "test": "Blood LH level time course after intraventricular administration in freely moving Wistar rats", "details": "for blood LH level compared with the control group: third ventricle, 0-60 min", "procedure": "A guide cannula was implanted in adult male Wistar rats treated in the same manner as described in Example 1. The rats were allowed about one week for recovery from the surgery. Then, they received another surgery so that blood samples can be taken from them moving freely. Briefly, the guide cannula-implanted rat was anesthetized by intraperitoneal administration of […] pentobarbital and fixed on an anatomical pad in face-up position. Then, the left jugular vein was exposed. A polyethylene tube SP35 (inside dia. 0.5 mm, outside dia. 0.9 mm; Natsume Seisakusho) was cut to give an about 30 cm length, filled with 200 U/ml heparin-containing physiological saline, inserted into the jugular vein about 4.5 cm, and fixed. The other end of the tube was passed subcutaneously through dorsal skin and exposed from the neck (dorsal).\nAfter one night from the surgery, 300 μl of blood was collected from each rat using a 1 ml injection syringe for tuberculin and a 25-gauge injection needle (both Terumo Corp.) prior to the administration of rat GALP (a peptide consisting of the amino acid sequence as shown in SEQ ID NO: 33). In order to prevent blood coagulation, 10 μl of 300 KIU/ml aprotinin solution containing 3 mg/ml EDTA was added in advance into the injection syringe. The cap nut and the dummy cannula installed on the rat skull were removed. Instead of them, a stainless microinjection cannula (inside dia. 0.17 mm, outside dia. 0.35 mm; Eicom) connected with a Teflon tube (length 50 cm, inside dia. 0.1 mm, outside dia. 0.35 mm; Eicom) was inserted into the guide cannula. The length of the microinjection cannula was adjusted in advance so that 1 mm of it tip was exposed from the guide cannula. One end of the Teflon tube was connected with a microsyringe pump. […] Five minutes after the completion of the injection, the microinjection cannula was removed, and a dummy cannula was fixed again with a cap nut. […] The LH levels in the plasma were measured by radioimmunoassay (Amersham)."}, "blood LH levels [3]": {"system": "blood LH levels", "test": "Blood LH levels after intraventricular GALP in Zucker fatty and Zucker lean rats", "details": "1 nmol third ventricle", "procedure": "Effects of GALP administration into the third ventricle on LH levels in plasma were examined using Zucker obese rats having an abnormality of Leptin receptor. Briefly, adult male Zucker obese rats (body weights at the time of surgery: fatty: 410-430 g; lean: 290-310 g) were anesthetized by intraperitoneal administration of 50 mg/kg pentobarbital and fixed in a stereotaxic apparatus for rat brain. The incisor bar was set 3.3 mm below the interaural line. The skull surface was exposed, and a hole was drilled in the skull with a dental drill in order to implant a guide cannula AG-8 (inside dia. 0.4 mm, outside dia. 0.5 mm; Eicom) in the third ventricle. Further, four anchor screws were embedded around the hole. A stainless guide cannula (AG-12) was inserted so that its tip was located above the third ventricle. The stereotaxic coordinates were set as follows according to the atlas of Paxinos and Watson (1998): for Zucker fatty, AP: −1.00 mm, L: 0.0 mm, H: 5.6 mm from bregma, and for Zucker lean, AP: −0.9 mm, L: 0.0 mm, H: 5.4 mm from bregma. The guide cannula was fixed onto the skull with instant glue, dental cement and the anchor screws. […]\nThe rats were allowed about one week for recovery after the implantation of the guide cannula. […] The LH levels in the plasma were measured by radioimmunoassay (Amersham)."}}}
{"substance": "rat GALP (APAHRGRGGWTLNSAGYLLGPVLHLSSKANQGRKTDSALEILDLWKAIDGLPYSRSPRMT; Rat)", "values": [{"measurement": "blood LH level compared to the control group", "setting": "[1]; 0.5 nmol and 5 nmol intraventricular, 10 min after injection", "value": "significant increase"}, {"measurement": "other pituitary hormone levels in blood (FSH, GH, TSH, ACTH, prolactin)", "setting": "[1]; intraventricular, 5 nmol/rat", "value": "no other pituitary hormone levels were changed"}, {"measurement": "blood LH level compared with the control group", "setting": "blood LH levels [2]; 1 nmol administration group", "value": "tendency to rise"}, {"measurement": "time of peak of blood LH rise after the administration", "setting": "blood LH levels [2]; 5 nmol administration group", "value": 30, "unit": "min"}, {"measurement": "blood LH level compared with the control group", "setting": "blood LH levels [2]; 5 nmol administration group", "value": "significant rise"}, {"measurement": "blood LH levels compared with the control group", "setting": "blood LH levels [3]; Zucker fatty rats, at 10, 20 and 30 min", "value": "significant rise"}, {"measurement": "blood LH levels compared with the control group", "setting": "blood LH levels [3]; Zucker lean rats", "value": "no significant rise"}]}
